Test results taken from patent US9101628B2, “Methods and composition of treating a flaviviridae family viral infection” (The Board of Trustees of the Leland Stanford Junior …, priority 2007, dated 2015).
Entries after “also recorded” stand apart in the source; their conditions may differ. Structures can show the parent of a compound that is named as a salt. Where two headings read alike, the source gives them in different places.

What was measured:
HuR = molecular target: T1, HuR (Homo sapiens, UniProt Q15717); test: HuR RNA binding by microfluidics (specificity of hits); settings: 0.1 mM
T1 construct: The open reading frames (ORF) of HuR and HuD were obtained from the ORFeome library of cDNA clones (Open biosystems); V5-his (C); made in house; host or cells: cell-free expression on the microfluidic device, from pcDNA-Dest 40 carrying the ORFeome clone (Open Biosystems)
Method: Specificity of hits identified in the small molecule screen: To determine the specificity of the hits identified in the small molecule screen, the HuR protein (one of the human RNA binding protein used to validate our RNA binding assay) was selected. […] Binding of HuR to the consensus 4A RNA sequence was tested in the presence of the inhibitory molecules shown to inhibit RNA binding by NS4B. […] Similarly, 0.1 mM of the identified compounds didn't have an inhibitory effect on binding of HuR to the 3′ terminus of the negative HCV RNA strand.

Huh7.5 cells = test: Alamar Blue-based cell viability assay; parameters: species or system human
Method: (§1) Total volume per well is 100 μl.
(§2) (or until there is a color change).

[1] = system: full-length J6/JFH (genotype 2a) HCV RNA genome; test: microbe, parasite or virus in culture; format: cell-based; settings: for EC50: Hepatitis C virus, Huh7.5, 72 h, read-out: EC50 HCV replication, genotype 2a luciferase reporter, Huh7.5 cells, 72 hr
Method: In such assays, luciferase activity is directly proportional to HCV RNA genome replication.
The in vivo antiviral effect on HCV RNA replication of the inhibitory compounds identified in the above screen was measured. Following electroporation with a full-length HCV RNA genome harboring a luciferase reporter gene, Huh7.5 cells were grown in the presence of increasing concentrations of these compounds. Luciferase assays were performed at 72 hr. In parallel, the viability of cells in the presence of the compounds was assessed by an Alamar Blue-based assay.
Huh-7.5 cells were maintained in Dulbecco's modified minimal essential medium (Gibco) supplemented with 1% L-glutamine (Gibco), 1% penicillin, 1% streptomycin (Gibco), 1× nonessential amino acids (Gibco) and 10% fetal bovine serum (Omega Scientific). Cell lines were passaged twice weekly after treatment with 0.05% trypsin-0.02% EDTA and seeding at a dilution of 1:5. Subconfluent Huh-7.5 cells were trypsinized and collected by centrifugation at 700 g for 5 min. The cells were then washed three times in ice-cold RNase-free PBS (BioWhittaker) and resuspended at 1.5*10^7 cells/ml in PBS. Wild type or mutant FL-J6/JFH-5′C19Rluc2AUbi RNA for electroporation was generated by in vitro transcription of XbaI-linearized DNA templates using the T7 MEGAscript kit (Ambion), followed by purification, essentially as described above (In vitro RNA transcription and fluorescent labeling). 5 μg of RNA was mixed with 400 μl of washed Huh-7.5 cells in a 2 mm-gap cuvette (BTX) and immediately pulsed (0.82 kV, five 99 μs pulses) with a BTX-830 electroporator. After a 10 min recovery at 25° C., pulsed cells were diluted into 10 ml of prewarmed growth medium. Cells from several electroporations were pooled to a common a stock and seeded in 6 well plates (5*10^5 cells per well). After 24 hr, medium was replaced and cells were grown in the presence of serial dilutions of the various inhibitory compounds (Sigma) identified in the screen. […] Untreated cells were used as a negative control for water soluble compounds. For compounds solubilized in DMSO, untreated cells were grown in the presence of corresponding concentrations of the solvent as a negative control. Medium was changed daily. After 72 hr of treatment, cells were subjected to an alamar blue based viability assay and luciferase assay.
The experiment was repeated four times, each time with triplicates.
Following electroporation with a full-length J6/JFH (genotype 2a) HCV RNA genome harboring a luciferase reporter gene, Huh7.5 cells were grown in the presence of various concentrations of the individual compounds and their combinations. Luciferase assays were performed at 72 hr.

HCV RNA replication = test: RNA replication inhibition assay (luciferase reporter-linked HCV genome); settings: Hepatitis C virus, percentage of untreated control population; for activity at 5 µM: read-out: Residual Luciferase activity, 5 micromolar; for activity at 10 µM: read-out: Residual Luciferase activity, 10 micromolar
hERG channel = hERG channel (Homo sapiens, UniProt Q12809); test: HERG channel assay (whole cell recordings, CHO cell line expressing hERG)
Method: Test articles in this study were therefore characterized to determine their ability to inhibit the hERG channel. Ion channel activity was measured using a stably transfected Chinese Hamster Ovary (CHO) cell line expressing the hERG mRNA.
AVIVA's CHO cell line, which stably expresses hERG channels, was used for the study. Cells were cultured in DMEM/F12 containing 10% FBS, 1% penicillin/streptomycin and 500 μg/ml G418. Before testing, cells were harvested using Accumax (Innovative Cell Technologies).
Whole cell recordings were-performed using PX 7000A (Axon Instruments) with VIVA's SealChip™ technology. Cells were voltage clamped at a holding potential of −80 mV. The hERG current was then activated by a depolarizing step to −50 mV for 300 ms. This first step at −50 mV was used as a baseline for measuring peak amplitude of the tail current. Next, a voltage step to +20 mV was applied for 5 s to activate the channels. Finally a step back to −50 mV for 5 seconds removed activation and the deactivating tail current was recorded.
All compounds were prepared from either 10 or 30 mM DMSO stock solutions. Solutions were mixed by sonication for 20 min, followed by vigorous vortexing. Prior to testing, compounds were diluted to test concentrations in glass vials using External Solution. Dilutions were prepared no longer than 20 min prior to use. Equal amounts of DMSO (0.1%) were present in all final dilutions.
After achieving whole cell configuration, cells were monitored for 90 s to assess stability and then washed with External Solution for 66 s. The voltage protocol described above was then applied to the cells every 12 s throughout the procedure. Only stable cells with recording parameters above threshold (see Quality Control section) were allowed to enter the drug addition procedure. External solution containing 0.1% DMSO (vehicle) was applied to the cells to establish a baseline. After allowing the current to stabilize for 3 to 5 min, test articles were applied. Test article solutions were added to cells in 4 separate additions. […]

HCV = settings: cited from earlier work
[2] = system: replicon harboring the W55R mutation; test: Whole cell RNA electroporation, clemizole resistant clone; format: cell-based, HCV; settings: 10 μM clemizole; 2.5 μM SCH503034
Method: Whole cell RNA was extracted from clemizole-resistant replicon clones and from untreated replicon cells using TRIzol reagent (Invitrogen). Equal amounts of whole cell RNA (50 μg) were electroporated into Huh7.5 cells as described above. Cells were grown under G418 selection in the presence or absence of clemizole for 3 weeks. The number of colonies was determined using Image J (NIH) following fixation and staining with Crystal violet.
Cells transfected with whole cell RNA extracted from wild type replicon cells were sensitive to both drugs.

[3] = Alamar Blue-based cell viability assay; parameters: species or system human; settings: human, Huh7.5 cells; genotype 2a experiments; Alamar Blue-based and CellTiter-Blue assay
Method: as §1, §2

[4] = system: subgenomic Bart 79I HCV RNA replicon (genotype 1b); test: microbe, parasite or virus in culture; format: cell-based; settings: Hepatitis C virus; genotype 1b luciferase reporter, 72 hr; read-out: EC50 HCV replication
Method: Huh7.5 cells were electroporated with a subgenomic Bart 79I HCV RNA replicon harboring a luciferase reporter gene, and grown in the presence of increasing concentrations of the individual compounds or their combinations. As described above, luciferase assays and Alamar Blue-based viability assays were performed at 72 hr.

[5] = system: replicon harboring the A156T mutation; test: Whole cell RNA electroporation, SCH503034 resistant clone; format: cell-based, HCV

T1 sequence (Q15717 whole entry): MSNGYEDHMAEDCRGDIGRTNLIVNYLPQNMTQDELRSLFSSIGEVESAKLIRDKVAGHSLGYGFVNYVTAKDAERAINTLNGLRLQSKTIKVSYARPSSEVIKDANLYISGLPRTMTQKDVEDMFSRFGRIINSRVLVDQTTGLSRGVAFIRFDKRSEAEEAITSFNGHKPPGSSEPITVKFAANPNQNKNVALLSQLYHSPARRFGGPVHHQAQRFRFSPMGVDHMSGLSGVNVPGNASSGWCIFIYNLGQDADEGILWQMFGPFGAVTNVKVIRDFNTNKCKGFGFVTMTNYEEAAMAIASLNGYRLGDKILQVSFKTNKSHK
Sequence of hERG channel (Q12809 whole entry): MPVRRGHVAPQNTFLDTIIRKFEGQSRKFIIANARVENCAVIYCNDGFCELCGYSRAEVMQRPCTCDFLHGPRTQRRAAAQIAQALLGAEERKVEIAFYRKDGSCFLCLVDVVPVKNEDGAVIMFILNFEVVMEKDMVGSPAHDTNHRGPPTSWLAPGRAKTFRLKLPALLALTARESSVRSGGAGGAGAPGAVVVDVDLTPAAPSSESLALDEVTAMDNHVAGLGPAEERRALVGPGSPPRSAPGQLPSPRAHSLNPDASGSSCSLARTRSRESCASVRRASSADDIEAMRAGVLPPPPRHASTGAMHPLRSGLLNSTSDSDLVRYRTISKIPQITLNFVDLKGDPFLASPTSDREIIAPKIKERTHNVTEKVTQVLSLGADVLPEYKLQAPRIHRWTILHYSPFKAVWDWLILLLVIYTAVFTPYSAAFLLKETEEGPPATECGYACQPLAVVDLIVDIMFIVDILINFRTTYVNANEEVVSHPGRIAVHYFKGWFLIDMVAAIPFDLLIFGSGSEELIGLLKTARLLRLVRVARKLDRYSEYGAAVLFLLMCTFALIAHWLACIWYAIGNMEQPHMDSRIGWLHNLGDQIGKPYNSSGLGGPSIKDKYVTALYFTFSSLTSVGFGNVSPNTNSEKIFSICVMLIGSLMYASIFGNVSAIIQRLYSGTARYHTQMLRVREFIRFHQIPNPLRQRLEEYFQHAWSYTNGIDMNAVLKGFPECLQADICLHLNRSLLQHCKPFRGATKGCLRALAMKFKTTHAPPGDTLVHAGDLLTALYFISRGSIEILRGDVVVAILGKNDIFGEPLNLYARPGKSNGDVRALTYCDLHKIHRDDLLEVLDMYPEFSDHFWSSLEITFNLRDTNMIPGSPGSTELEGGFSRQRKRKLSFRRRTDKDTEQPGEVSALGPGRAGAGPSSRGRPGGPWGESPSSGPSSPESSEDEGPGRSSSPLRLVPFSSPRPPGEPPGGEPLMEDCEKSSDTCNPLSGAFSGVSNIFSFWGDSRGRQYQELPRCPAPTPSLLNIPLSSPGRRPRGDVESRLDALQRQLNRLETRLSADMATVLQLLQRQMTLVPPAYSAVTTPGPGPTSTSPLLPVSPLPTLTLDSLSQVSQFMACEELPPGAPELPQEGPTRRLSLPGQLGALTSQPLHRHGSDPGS

Row | Structure (SMILES) | activity at 5 µM (HCV RNA replication) [%] | activity at 10 µM (HCV RNA replication) [%] | also measured
1 | O=C(O)C1=CC(=C(c2ccc(O)c(C(=O)O)c2)c2ccc(O)c(C(=O)O)c2)C=CC1=O [ATA] | – | – | effect on binding of HuR to 4A RNA sequence (HuR): affected; also recorded: significantly inhibited; effect on binding of HuR to the 3′ terminus of the negative HCV RNA strand (HuR): significantly inhibited
2 | Clc1ccc(Cn2c(CN3CCCC3)nc3ccccc32)cc1 [Clemizole hydrochloride, clemizole hydrochloride] | – | – | cellular toxicity (Huh7.5 cells; at antiviral concentrations, Alamar Blue, 72 hr, hydrochloride): no measurable cellular toxicity; cellular toxicity (Huh7.5 cells; human, 72 h): little toxicity; decrease in viral replication ([1]; 20 μM, 72 hr): tenfold
3 | Oc1ccc(Cn2cnc3ccccc32)cc1 [Compound 143] | > 80 | < 80 | –
4 | COc1ccc(Cn2cnc3ccccc32)cc1 [Compound 144] | < 55 | < 55 | –
5 | Cc1cc2nc(/C=C/c3ccccc3)n(Cc3ccc(Cl)cc3)c2cc1C [Compound 145] | < 80 | < 20 | –
6 | Cc1cc2c(ncn2Cc2ccccc2)c(N)c1C [Compound 146] | < 80 | < 80 | –
7 | COc1ccc(Cn2c(C)nc3c(N)c(C)c(C)cc32)cc1 [Compound 147] | < 80 | < 80 | –
8 | CS(=O)(=O)c1ccc2c(c1)ncn2Cc1ccccc1 [Compound 149] | > 80 | > 80 | –
9 | CS(=O)(=O)c1ccc2c(c1)nc(C(F)(F)F)n2Cc1ccccc1 [Compound 150] | < 80 | < 55 | –
10 | CCOC(=O)Cc1nc2cc(S(C)(=O)=O)ccc2n1Cc1ccccc1 [Compound 151] | < 80 | < 55 | –
11 | CS(=O)(=O)c1ccc2c(c1)nc(S)n2Cc1ccccc1 [Compound 152] | < 80 | < 55 | –
12 | CCOC(=O)CSc1nc2cc(S(C)(=O)=O)ccc2n1Cc1ccccc1 [Compound 153] | > 80 | < 80 | –
13 | Cc1cc2ncn(Cc3cc(Cl)cc4c3OCCO4)c2cc1C [Compound 154] | < 80 | < 55 | –
14 | Cc1ccc(Cn2c(C)nc3cc(C)c(C)cc32)cc1 [Compound 155] | < 55 | < 20 | –
15 | Cc1cc2nc(CN3CCCC3)n(Cc3ccc(Cl)cc3)c2cc1C [Compound 156] | < 80 | < 55 | –
16 | Clc1ccc(Cn2c(CN3CCCC3)nc3cc(Cl)c(Cl)cc32)cc1 [Compound 157] | < 80 | < 55 | –
17 | Cc1cc2nc(-c3ccc[nH]c3=O)n(Cc3ccc(Cl)cc3)c2cc1C [Compound 158] | < 80 | < 80 | –
18 | Cc1cc2nc(-c3ccc(=O)[nH]c3)n(Cc3ccc(Cl)cc3)c2cc1C [Compound 159] | < 80 | < 55 | –
19 | COC(=O)c1ccc(Cn2c(/C=C/c3ccccc3)nc3cc(C)c(C)cc32)cc1 [Compound 160] | < 80 | < 20 | –
20 | COC(=O)c1ccc(Cn2cnc3ccncc32)cc1 [Compound 161] | > 80 | > 80 | –
21 | O=c1ccc(-c2nc3cc(Cl)c(Cl)cc3n2Cc2ccc(Cl)c(Cl)c2)c[nH]1 [Compound 167] | – | – | IC50 (hERG channel; read-out: HERG IC50, CHO cell line stably expressing hERG): > 1000 nM
22 | Cc1ccc2c(c1)nc(CN1CCCCC1)n2Cc1ccc(Cl)cc1 [Compound 184] | – | – | IC50 (hERG channel; human, CHO cells stably expressing hERG): > 1000 nM
23 | CNC(=O)c1c(-c2ccc(F)cc2)oc2cc(N(CCO)S(C)(=O)=O)c(C3CC3)cc12 [HCV 796, HCV-796] | – | – | EC50 (HCV; read-out: EC50 reported value): 17 nM; EC50 [1]: 68 ± 8 nM
24 | CC(C)[C@H](N)C(=O)O[C@@H]1[C@@H](CO)O[C@@H](n2ccc(N)nc2=O)[C@]1(C)O [NM283, valopicitabine] | – | – | EC50 [1]: 1160 ± 200 nM
25 | CC(C)(C)NC(=O)N[C@H](C(=O)N1C[C@H]2[C@@H]([C@H]1C(=O)NC(CC1CCC1)C(=O)C(N)=O)C2(C)C)C(C)(C)C (some centres unmarked) [SCH503034, boceprevir] | – | – | sensitivity of Huh7.5 cells transfected with whole cell RNA from W55R clone [2]: remained sensitive; CC50 (Huh7.5 cells; genotype 1b experiments, Alamar Blue, 72 hr): > 100000 nM; CC50 at 72 h [3]: > 100000 nM; EC50 [4]: ~210 nM; sensitivity of Huh7.5 cells transfected with whole cell RNA from A156T clone [5]: decreased sensitivity; EC50 [1]: 800 nM; decrease of viral replication ([1]; SCH503034 alone at 2.5 μM): ~1 log; viral replication relative to 1, untreated ([1]; SCH503034 alone at 2.5 μM): 0.08
26 | CCC[C@H](NC(=O)[C@@H]1[C@H]2CCC[C@H]2CN1C(=O)[C@@H](NC(=O)[C@@H](NC(=O)c1cnccn1)C1CCCCC1)C(C)(C)C)C(=O)C(=O)NC1CC1 [VX-950, telaprevir] | – | – | EC50 (HCV; different assay and 1b genotype, read-out: EC50 reported by others): 354 to 560 nM; EC50 [1]: ~300 nM
